Assay results as given in patent US7351857B2, “Methods of using substituted tetralins and indanes” (Janssen Pharmaceutica N.V., priority 2002, dated 2008).

Assays:
PPARγ = molecular target: T1, PPARγ (Homo sapiens, UniProt P37231); assay: aP2 assay for PPAR gamma agonists (bDNA aP2 mRNA in preadipocytes); assay type: cell-based; conditions: unbracketed values; PPARγ standard FI = 70.3
T1 construct: Following the challenge of the preadipocytes, cells may be lysed with lysis buffer; endogenous in cells; host or cells: preadipocytes
T1 sequence (P37231 1-505): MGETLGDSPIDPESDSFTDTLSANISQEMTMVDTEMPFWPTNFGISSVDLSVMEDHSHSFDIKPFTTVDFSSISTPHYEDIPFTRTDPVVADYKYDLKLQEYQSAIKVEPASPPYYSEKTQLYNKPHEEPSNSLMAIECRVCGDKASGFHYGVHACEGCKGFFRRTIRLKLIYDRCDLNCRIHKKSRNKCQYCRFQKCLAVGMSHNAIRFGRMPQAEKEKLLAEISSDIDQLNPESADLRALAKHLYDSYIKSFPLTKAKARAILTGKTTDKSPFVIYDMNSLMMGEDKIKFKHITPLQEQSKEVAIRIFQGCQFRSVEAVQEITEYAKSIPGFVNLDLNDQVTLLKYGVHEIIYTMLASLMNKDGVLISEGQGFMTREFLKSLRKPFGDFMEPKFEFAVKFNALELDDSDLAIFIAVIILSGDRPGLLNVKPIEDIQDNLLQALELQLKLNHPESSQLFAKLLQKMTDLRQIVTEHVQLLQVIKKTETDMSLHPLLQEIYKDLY
Procedure: The procedure is described in detail in Burris et al., Molecular Endocrinology, 1999, 13:410, which is hereby incorporated by reference in its entirety, and aP2 assay results of agonist intrinsic activity may be presented as fold increase over vehicle in induction of aP2 mRNA production.
Twenty-four hours after the initial seeding of the 96-well plates by hand (around 20,000/well), the differentiation assay may be initiated. Medium may be removed and replaced with 150 μl of differentiation medium containing vehicle (DMSO) or test compounds. Cells may be returned to incubator for 24 hours culture. At the termination of the challenge, medium may be removed and 100 ul of lysis buffer may be added to initiate the bDNA aP2 mRNA assay. The branched DNA assay may be performed according to the manufacturer's protocol (Bayer Diagnostics; Emeryville, Calif.). Result may be expressed as the fold increase of aP2 mRNA production activated over vehicle controls. EC50's and Emax may be determined by non-linear regression with a sigmoidal fit curve.
Following the challenge of the preadipocytes, cells may be lysed with lysis buffer (Bayer Diagnostics) containing the aP2 oligonucleotides. After a 15 minute incubation at 53° C. or 30 minutes at 37° C. incubator, 70 ul of the lysis buffer from each well may be added to a corresponding capture well (preincubated with 70 ul of blocking buffer (Bayer Diagnostics)). The capture plate may be incubated overnight at 53° C. in a plate incubator (Bayer Diagnostics). After this incubation, the bDNA and labeled probes may be annealed as directed by the manufacturer. Following a 30-minute incubation with the luminescent alkaline phosphatase substrate, dioxitane, the luminescence may be quantitated in a Dynex MLX microtiter plate luminometer. Oligonucleotide probes designed to anneal to the aP2 mRNA and function in the bDNA mRNA detection system are designed with ProbeDesigner software (Bayer Diagnostics). This software package analyzes a target sequence of interest with a series of algorithms in order to determine which regions of the sequence can perform as locations for capture, label, or spacer probe annealing. The sequences of the oligonucleotides are as follows: […]

PPARδ = molecular target: T2, PPARδ (Homo sapiens, UniProt Q03181); assay: Transfection assay for PPARδ receptors (PPAR-Gal4 / Gal4-luciferase reporter in HEK293 cells); assay type: cell-based; conditions: unbracketed values, PPARδ standard FI = 36.1
T2 sequence (Q03181 171-441 limits assumed): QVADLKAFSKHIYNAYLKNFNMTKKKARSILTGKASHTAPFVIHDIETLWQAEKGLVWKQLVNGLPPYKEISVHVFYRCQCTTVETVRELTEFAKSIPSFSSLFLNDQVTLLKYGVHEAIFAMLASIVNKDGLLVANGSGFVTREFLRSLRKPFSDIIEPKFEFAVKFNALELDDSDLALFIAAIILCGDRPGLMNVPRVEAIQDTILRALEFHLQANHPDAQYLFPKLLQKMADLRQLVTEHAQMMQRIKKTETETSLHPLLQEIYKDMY
Procedure: HEK293 cells were grown in DMEM/F-12 Media supplemented with 10% FBS and glutamine (GIBCOBRL). The cells were co-transfected with DNA for PPAR-Gal4 receptor and Gal4-Luciferase Reporter using the DMRIE-C Reagent. On the following day, the DNA-containing medium were replaced with 5% Charcoal treated FBS growth medium. After six hours, cells were seeded in 96 well plate and incubated at 37° C. in CO2 incubator overnight. Cells were challenged by test compounds and incubated for 24 hours at 37° C. in 5% CO2 incubator. Luciferase activity was assayed using the Steady-Glo Luciferase Assay Kit from Promega. DMRIE-C Reagent was purchased from GIBCO Cat. No. 10459-014. OPTI-MEM I Reduced Serum Medium was purchased from GIBCO Cat. No. 31985. Steady-Glo Luciferase Assay Kit was obtained from Promega Part# E254B.

ob/ob mice = assay: 11 day oral dosing in female ob/ob mice: serum TG, glucose, insulin; assay type: in vivo; conditions: 1.0 mpk, oral once daily 11 days, % change vs vehicle
Procedure: (Female ob/ob mice (C57 BU6J-Lep^ob, Jackson Labs, Bar Harbor, Me.), 7 weeks of age, were housed two per cage in solid-bottomed shoe box cages. Room temperature was maintained at 68-72° F. and humidity at 50-65%. Room lighting was on a 12-hour light/12-hour dark cycle. Mice were fed a certified NIH Rat and Mouse diet #5K50 (P M I Nutrition Int'l, St. Louis, Mo., via W. F. Fisher and Son, Inc., Bound Brook, N.J.). Food and water were supplied ad libitum.
The compound was prepared as suspensions in 0.5% hydroxypropyl-methylcellulose (Dow Chemical, Midland, Mich.). The dosing volume was 10 mL/kg of body weight. Female ob/ob diabetic mice (8/group) were orally gavaged once daily for 11 days with either 0.5% methylcellulose in dH2O (vehicle) or PPAR agonist at 0.003, 0.01, 0.03, 0.1, 0.3, 1 mg/kg/day. Body weight was measured in the mornings on Day 1, prior to dosing, and on Day 12 before bleeding. 18 hours after the final dose for each group, the mice were anesthetized with CO2/O2 (70%:30%) and bled by retro-orbital sinus puncture into micro-tubes containing clog activator and then put in ice. The serum samples were prepared by centrifugation. Serum glucose and triglycerides were determined by using COBAS Mira Plus blood chemistry analyzer (Roche Diagnostics, N.J.). Serum insulin and free fatty acids were measured by using ALPCO insulin ELISA kit and Wako NEFA kit, respectively. […]

| Compound | PPARγ FI (fold induction) (PPARγ) | PPARδ FI (fold induction) (PPARδ) | Δ Plasma Glucose (ob/ob mice) [%] | Δ Plasma Insulin (ob/ob mice) [%] |
| --- | --- | --- | --- | --- |
| CCN(C(=O)Nc1ccc(OC(F)(F)F)cc1)C1Cc2ccc(SC(C)(C)C(=O)O)cc2C1 (centres unmarked) [Example 2, 2-{2-[1-Ethyl-3-(4-trifluoromethoxyphenyl)ureido]indan-5-ylsulfanyl}-2-methylpropionic acid] | 0.24 | 4.2 |  |  |
| CCCCCN(C(=O)Nc1ccc(SC(F)(F)F)cc1)C1Cc2ccc(SC(C)(C)C(=O)O)cc2C1 (centres unmarked) [Example 5, 2-Methyl-2-{2-[1-pentyl-3-(4-trifluoromethylsulfanylphenyl)ureido]indan-5-ylsulfanyl}propionic acid] | 4.0 | 2.5 |  |  |
| CCN(C(=O)Nc1ccc(C(C)C)cc1)C1Cc2ccc(SC(C)(C)C(=O)O)cc2C1 (centres unmarked) [Example 6, 2-{2-[1-Ethyl-3-(4-isopropylphenyl)ureido]indan-5-ylsulfanyl}-2-methylpropionic acid] | 1.9 | 3.6 |  |  |
| CCCCCN(C(=O)Nc1ccc(OC(F)(F)F)cc1)C1Cc2ccc(SC(C)(C)C(=O)O)cc2C1 (centres unmarked) [Example 8, 2-Methyl-2-{2-[1-pentyl-3-(4-trifluoromethoxyphenyl)ureido]indan-5-ylsulfanyl}-2-methylpropionic acid] | 1.9 | 5.9 |  |  |
| CCCCCN(C(=O)Nc1ccc(N(C)C)cc1)C1Cc2ccc(SC(C)(C)C(=O)O)cc2C1 (centres unmarked) [Example 9, 2-{2-[3-(4-Dimethylaminophenyl)-1-pentylureido]indan-5-ylsulfanyl}-2-methylpropionic acid] | 2.9 | 1.0 |  |  |
| CCCCCCN(C(=O)Nc1ccc(OC(F)(F)F)cc1)C1Cc2ccc(SC(C)(C)C(=O)O)cc2C1 (centres unmarked) [Example 14, 2-Methyl-2-{2-[1-hexyl-3-(4-trifluoromethoxyphenyl)ureido]indan-5-ylsulfanyl}propionic acid] | 0.3 | 1.3 |  |  |
| CCN(C(=O)Nc1ccc(OC(F)(F)F)cc1)C1CCc2cc(SC(C)(C)C(=O)O)c(F)cc2C1 (centres unmarked) [Example 50, 2-{6-[1-Ethyl-3-(4-trifluoromethoxyphenyl)ureido]-3-fluoro-5,6,7,8-tetrahydronaphthalen-2-ylsulfanyl}-2-methylpropionic acid] |  |  | −74 | −93 |
